{"source": "ChEMBL document CHEMBL3886955", "about": "“Pyrrolidine derivatives and their use as complement pathway modulators” (2016)", "biological_target": "Complement factor D (Homo sapiens, UniProt P00746)", "sequence (P00746 whole entry)": "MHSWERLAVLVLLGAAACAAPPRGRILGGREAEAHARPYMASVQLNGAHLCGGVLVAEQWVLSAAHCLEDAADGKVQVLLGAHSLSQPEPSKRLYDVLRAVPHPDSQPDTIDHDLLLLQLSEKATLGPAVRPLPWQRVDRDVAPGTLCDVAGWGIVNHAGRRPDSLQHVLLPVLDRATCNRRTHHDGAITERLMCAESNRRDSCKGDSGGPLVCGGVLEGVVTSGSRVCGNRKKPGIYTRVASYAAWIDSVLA", "experiment": "In Vitro Assay: Method 1: Recombinant human factor D (expressed in E. coli and purified using standard methods) at 10 nM concentration is incubated with test compound at various concentrations for 1 hour at room temperature in 0.1 M Hepes buffer, pH 7.5, containing 1 mM MgCl2, 1 M NaCl and 0.05% CHAPS. A synthetic substrate Z-Lys-thiobenzyl and 2,4-dinitrobenzenesulfonyl-fluoresceine are added to final concentrations of 200 μM and 25 μM, respectively. The increase in fluorescence is recorded at excitation of 485 nm and emission at 535 nm in a microplate spectrofluorimeter. IC50 values are calculated from percentage of inhibition of complement factor D-activity as a function of test compound concentration.", "note": "pIC50: −log10 of the molar value."}
{"molecule": "CC(C)=C(F)CNC(=O)[C@@H]1C[C@H]2C[C@H]2N1C(=O)Nc1cn(C(N)=O)c2ccccc12", "values": [{"measurement": "pIC50", "result": 7.62}]}
